PubChem BioAssay AID208 (DTP/NCI, 2004)
Where “and” joins values, the source holds several entries; their conditions need not be identical. Identical values can stand only once. Records with an inconclusive call do not appear.

Tested on: HT29 intrarenal xenograft, nude mice, tumor weight change
Assay: NCI In Vivo Anticancer Drug Screen. Data for tumor model HT29;CX-1 Human Adenocarcinoma (MER+) (intrarenal inoculation) in NU/NU BALB/C (nude) mice
Settings: endpoint: mean tumor weight change, higher = larger tumour
Experimental: The antitumor activity of compounds was measured in mice bearing transplantable tumors. Survival or tumor size were measured and the results are expressed as the measurement made in the treated group (T) divided by the measurement made in the vehicle treated control group (C). The tumor model used in this assay is HT29;CX-1 Human Adenocarcinoma (MER+) (intrarenal inoculation) in NU/NU BALB/C (nude) mice

CC(=O)OC(C)C1C2=C(C(=O)CC1(C)O)C(=O)c1c(ccc(-c3ccc4c(c3O)C(=O)C3=C(C4=O)C(C(C)OC(C)=O)C(C)(O)CC3=O)c1O)C2=O (stereo not given)
T/C (dose: 0.94 mg/kg/injection, schedule: Q04DX004 (ip), vehicle: saline with Tween-80): 94 % of control | T/C (dose: 1.9 mg/kg/injection, schedule: Q04DX004 (ip), vehicle: saline with Tween-80): 92 % of control | T/C (dose: 3.75 mg/kg/injection, schedule: Q04DX004 (ip), vehicle: saline with Tween-80): 88 % of control | T/C (dose: 7.5 mg/kg/injection, schedule: Q04DX004 (ip), vehicle: saline with Tween-80): 101 % of control | T/C (dose: 30.0 mg/kg/injection, schedule: Q04DX004 (ip), vehicle: saline with Tween-80): 162 % of control

O.O.[NH-]C1CCCCC1[NH-].[Pt+2] (stereo not given)
T/C (dose: 5.0 mg/kg/injection, schedule: Q01DX010 (sc), vehicle: dextrose): 98 % of control | T/C (dose: 10.0 mg/kg/injection, schedule: Q01DX010 (sc), vehicle: dextrose): 75 % of control | T/C (dose: 20.0 mg/kg/injection, schedule: Q01DX010 (sc), vehicle: dextrose): 34 % of control | T/C (dose: 40.0 mg/kg/injection, schedule: Q01DX010 (sc), vehicle: dextrose): 19 % of control

[Na+]
T/C (dose: 150.0 mg/kg/injection, schedule: Q04DX004 (ip), vehicle: water): 55 % of control | T/C (dose: 300.0 mg/kg/injection, schedule: Q04DX004 (ip), vehicle: water): 70 % of control | T/C (dose: 600.0 mg/kg/injection, schedule: Q04DX004 (ip), vehicle: water): 16 % of control | T/C (dose: 1200.0 mg/kg/injection, schedule: Q04DX004 (ip), vehicle: water): 76 % of control

COc1cccc2c1C(=O)c1c(O)c3c(c(O)c1C2=O)C[C@@](O)(C(=O)CO)C[C@@H]3OC1CC(N2CCOCC2C#N)C(O)C(C)O1 (stereo not given in full)
T/C (dose: 15.0 micrograms/kg/injection, schedule: Q04DX004 (ip), vehicle: saline): 114 % of control | T/C (dose: 30.0 micrograms/kg/injection, schedule: Q04DX004 (ip), vehicle: saline): 110 % of control | T/C (dose: 60.0 micrograms/kg/injection, schedule: Q04DX004 (ip), vehicle: saline): 78 % of control

CNC=O
T/C (dose: 100.0 mg/kg/injection, schedule: Q01DX010 (ip), vehicle: saline): 81 % of control | T/C (dose: 200.0 mg/kg/injection, schedule: Q01DX010 (ip), vehicle: saline): 64 % of control | T/C (dose: 400.0 mg/kg/injection, schedule: Q01DX010 (ip), vehicle: saline): -33 % of control

COC(=O)[C@@]12OC[C@]34[C@H]([C@@H](O)[C@@H]1O)[C@@]1(C)CC(=O)C(O)=C(C)[C@@H]1C[C@H]3OC(=O)[C@H](OC(=O)/C=C(\C)C(C)C)[C@@H]24
T/C (dose: 0.5 mg/kg/injection, schedule: Q01DX010 (sc), vehicle: saline + alcohol): 35 % of control

CCCC(=O)OCc1cc(=O)n(C)c2c3c4c(cc12)c(C)cc(=O)n4CO3
T/C (dose: 100.0 mg/kg/injection, schedule: Q01DX010 (sc), vehicle: Klucel (hydroxypropylcellulose) (HPC)): 40 % of control | T/C (dose: 200.0 mg/kg/injection, schedule: Q01DX010 (sc), vehicle: Klucel (hydroxypropylcellulose) (HPC)): 43 % of control | T/C (dose: 400.0 mg/kg/injection, schedule: Q01DX010 (sc), vehicle: Klucel (hydroxypropylcellulose) (HPC)): 56 % of control | T/C (dose: 800.0 mg/kg/injection, schedule: Q01DX010 (sc), vehicle: Klucel (hydroxypropylcellulose) (HPC)): 27 % of control

CCCCC1CCCCCCc2[nH]c(/C=C3\N=C(c4ccc[nH]4)C=C3OC)cc21 (stereo not given)
T/C (dose: 2.0 mg/kg/injection, schedule: Q04DX004 (sc), vehicle: saline with Tween-80): 100 % of control | T/C (dose: 4.0 mg/kg/injection, schedule: Q04DX004 (sc), vehicle: saline with Tween-80): 192 % of control | T/C (dose: 8.0 mg/kg/injection, schedule: Q04DX004 (sc), vehicle: saline with Tween-80): 92 % of control

O=S(CCCl)CCCl
T/C (dose: 25.0 mg/kg/injection, schedule: Q04DX004 (sc), vehicle: Klucel (hydroxypropylcellulose) (HPC)): 98 % of control | T/C (dose: 50.0 mg/kg/injection, schedule: Q04DX004 (sc), vehicle: Klucel (hydroxypropylcellulose) (HPC)): 64 % of control

C=C(C)[C@@H]1CCc2c(O)c(O)c(=O)cc(C)c2C1
T/C (dose: 75.0 mg/kg/injection, schedule: Q04DX004 (sc), vehicle: saline): 192 % of control

Oc1c(Cl)cc(Cl)cc1C=NCCSc1ccc(Cl)cc1
T/C (dose: 600.0 mg/kg/injection, schedule: Q04DX004 (ip), vehicle: Klucel (hydroxypropylcellulose) (HPC)): 105 % of control and 88 % of control | T/C (dose: 1200.0 mg/kg/injection, schedule: Q04DX004 (ip), vehicle: Klucel (hydroxypropylcellulose) (HPC)): 80 % of control

Cc1ccoc1
T/C (dose: 50.0 mg/kg/injection, schedule: Q01DX010 (ip), vehicle: saline with Tween-80): 92 % of control | T/C (dose: 100.0 mg/kg/injection, schedule: Q01DX010 (ip), vehicle: saline with Tween-80): 63 % of control | T/C (dose: 200.0 mg/kg/injection, schedule: Q01DX010 (ip), vehicle: saline with Tween-80): 90 % of control
